Where two headings read alike, the source gives them in different places. Marks after values point to notes of the source that are not given here.
Experiments:
[1] = tested on: differentiated SH-SY5Y cells; assay: Apoptosis detection by Hoechst 33258 staining; format: cell-based, human; details: 25 and 50 µM co-treatment, 20 µM Aβ1-42, 24 h
Procedure: Apoptosis detection by Hoechst 33258 staining: Hoechst 33258 staining was used to detect apoptotic nuclei. […] Then, cells fixed with 4% paraformaldehyde in phosphate buffered saline at 4 °C for 30 min. After washing cells with PBS, the nuclear DNAs were incubated with […] Hoechst 33258 fluorescent dye for 5 min at room temperature. Cells were observed and photographed under a fluorescence microscopy (Leica® DM IL LED).

[2] = tested on: platelet aggregation induced by collagen; assay: Optical aggregometry in platelet-rich plasma, aggregation induced by collagen; format: cell-based, human; details: Collagen (10 µg/mL)
Procedure: (§1) Blood Collection and Preparation of Platelet-Rich Plasma: blood was collected from healthy and non-smoking volunteers (all volunteers have signed informed consent) into a polypropylene tube containing 0.105 M buffered sodium citrate. None of the donors had received any medication known to affect platelet function for at least 10 days before blood collection. Platelet-rich plasma (PRP) was collected by the centrifugation of whole blood at 150 g for 15 min at room temperature. Subsequently, platelet-poor plasma (PPP) was collected by the centrifugation at 2000 g for 20 min at room temperature. The platelet count was adjusted to 2x10^8 cells /ml with PPP.
(§2) Incubation of PRP with BLA and LA: PRP was incubated with BLA and LA (25, 50, and 100 µM) for 15 minutes at 37 °C. PRP without any compound was used as a control.
(§3) Optical Aggregometry in Platelet-Rich Plasma: the measurement of platelet aggregation in PRP was performed using four-channel aggregometer (APACT 4004; LABiTec, Ahrensburg, Germany). After the incubation of PRP with three different compounds, platelet aggregation was stimulated by ADP (20 µM) and Collagen (10 µg/mL) and percentage of aggregation was monitored for 10 minutes. The percentage of aggregation, slope and shape change parameters were monitored for 10 minutes. Assay was started 1 hour after blood was collected and finished within 3 hours (Hao HZ, He AD, Wang DC, Yin Z, Zhou YJ, Liu G, Liang ML, Da XW, Yao GQ, Xie W, Xiang JZ, Ming ZY. Antiplatelet activity of loureirin A by attenuating Akt phosphorylation: In vitro studies. Eur. J. Pharmacol. 2015; 746:63-9).

[3] = tested on: platelet aggregation induced by ADP; assay: Optical aggregometry in platelet-rich plasma, aggregation induced by ADP; format: cell-based, human; details: ADP (20 µM)
Procedure: as §1, §2, §3

[4] = tested on: differentiated SH-SY5Y human neuroblastoma cells; assay: LDH assay, neuroprotective effects against Aβ1-42 cytotoxicity; format: cell-based; details: with 20 µM Aβ1-42, 24 h
Procedure: Cell cultures and differentiation: SH-SY5Y cell line were growth in DMEM:F12 (1:1) media including 10% FBS and 1% penicillin/streptomycin at 37 °C and 5% CO2 until cells reach confluence. Then, cells harvested via using trypsin/EDTA solution and transferred to 48 well plates. For differentiation, media were changed to supplemented media with 10 µg/mL retinoic acid and incubated for 5 days. Finally, media were changed into serum free media supplementing with both 10 µM retinoic acid and 25 ng/mL BDNF.
Cytotechnol. 2015; 67:299-309.
Control cells (n = 6) were cultured under normal conditions. 1% Triton X, ascorbic acid (10 µM) and hydrogen peroxide (H2O2, 25 µM) were used as positive controls for cell viability, TAC and TOS analysis, respectively.
The cultures without BLA, MEM, or LA were studied as negative control group. 1% Triton-X was added to the culture media to provide negative control group.

human neuron-like cells = assay: Apoptosis-Necrosis assay (Annexin V-FITC/PI flow cytometry); format: cell-based; details: concentration not given
Procedure: Apoptosis-Necrosis assay: the frequencies of viable, apoptotic and necrotic cells were detected with the Annexin V-FITC apoptosis detection Kit I (BD Pharmingen, USA). Briefly, 5 x 10^4 cells were collected by centrifugation and cells resuspended in 500 µL of 1X binding buffer. Then, 5 µL of Annexin V-FITC and 5 µl of propidium iodide (PI 50 µg/ml) were added to the cultures and incubated 5 min in the dark. After that, cells fixed with 4% paraformaldehyde in phosphate buffered saline at 4 °C for 30 min. Cells from each well were stained according to the manufacturer's instructions and analyzed using a flow cytometer (CyFlow Cube 6, Partec, Germany). A computer system was used for data acquisition and analysis. Four different populations of cells are detected with the Annexin V-FITC kit: viable cells that are annexin negative and PI negative and express no fluorescence, early apoptotic cells that are annexin positive and PI negative and that express green fluorescence, late apoptotic/necrotic cells that are annexin positive and PI positive and that express green and orange fluorescence, necrotic cells that are annexin negative and PI positive and that express orange fluorescence (Majstorovic I, Vucevic D, Pavlovic B, Vasilijic S, Colic M. An anti-DEC-205 monoclonal antibody stimulates binding of thymocytes to rat thymic dendritic cells and promotes apoptosis of thymocytes. Cent Eur J Immunol. 2014; 39:411-418) .
BLA was considered as more able to protect the human neuron-like cells from Aβ1-42-induced necrosis and late apoptosis than LA or MEM.

[5] = tested on: cultured human lymphocytes; assay: SCE assay (genotoxicity); format: cell-based
Procedure: All volunteers have signed informed consent.
SCE assay: to provide successive visualization of SCEs, 5-bromo-2-deoxyuridine was added at culture cells. Exactly 70 h and 30 min after beginning of the incubations, demecolcine ([…]) was added to the cultures. After hypotonic treatment (0.075 M KCl), followed by three repetitive cycles of fixation in methanol/acetic acid solution (3:1, v/v), centrifugation and re-suspension, the cell suspension was dropped onto chilled, grease-free microscopic slides, air-dried, aged for three days, and then differentially stained for the inspection of the SCE rate according to the fluorescence plus Giemsa (FPG) procedure. For each treatment condition, well-spread twenty-five second division metaphases containing 42-46 chromosomes per cell were scored and the values obtained were calculated as SCEs per cell.
The frequencies of sister chromatid exchanges (SCEs) with increasing BLA concentrations were investigated in cultured human lymphocytes.

Row | Structure (SMILES) | nuclear integrity and apoptosis by Aβ1-42 (Hoechst 33258) [1] | Max. Aggregation (%) ([2]; 25 µM) | Shape change (%) ([2]; 25 µM) | Slope (%) ([2]; 25 µM) | Max. Aggregation (%) ([2]; 50 µM) | Shape change (%) ([2]; 50 µM) | Slope (%) ([2]; 50 µM) | Max. Aggregation (%) ([2]; 100 µM) | Shape change (%) ([2]; 100 µM) | Slope (%) ([2]; 100 µM) | Max. Aggregation (%) ([3]; 25 µM) | Shape change (%) ([3]; 25 µM) | Slope (%) ([3]; 25 µM) | Max. Aggregation (%) ([3]; 50 µM) | Shape change (%) ([3]; 50 µM) | Slope (%) ([3]; 50 µM) | Max. Aggregation (%) ([3]; 100 µM) | Shape change (%) ([3]; 100 µM) | Slope (%) ([3]; 100 µM) | increase in the cell viability (inhibited LDH release) ([4]; 25 µM) [%] | other results
1 | O=C(O)CCCCC1CCSS1 (stereo not drawn) [LA, 1,2-dithiolane-3-pentanoic acid] | protected nuclear integrity and inhibited apoptosis | 47.9* % | 27.9* % | 43.6* % | 41.6* % | 23.4* % | 37.2* % | 35.8* % | 20.8* % | 31,4* % | 55.8* % | 17.4* % | 69.8* % | 47.8* % | 14.5* % | 61.4* % | 44.6* % | 13.8* % | 58.0* % | 53.05 | increase in the cell viability (inhibited LDH release) ([4]; 50 µM): 58.68%; increase in the cell viability (inhibited LDH release) ([4]; 100 µM): 59.86%; decreased the necrotic cell percentage by Aβ1-42 (human neuron-like cells): 61.67%; frequencies of sister chromatid exchanges (SCEs) [5]: not higher than the control group
2 | CC1(C)C2CC3OB(CNC(=O)CCCC[C@H]4CCSS4)O[C@]3(C)C1C2 (stereo partly drawn) [BLA, 5-((S)-1,2-dithiolan-3-yl)-N-(((3aR)-3a,5,5-trimethylhexahydro-4,6-methanobenzo[d][1,3,2]dioxaborol-2-yl)methyl)pentanamide] | protected nuclear integrity and inhibited apoptosis | 45.7* % | 24.7* % | 41.4* % | 31.8* % | 10.2* % | 30.8* % | 7.9* % | 5.6* % | 25.5* % | 49,8* % | 12.1* % | 66.7* % | 41.3* % | 10.3* % | 51.5* % | 32.2* % | 6.8* % | 47.3* % | 62.91 | increase in the cell viability (inhibited LDH release) ([4]; 50 µM): 67.37%; increase in the cell viability (inhibited LDH release) ([4]; 100 µM): 70.65%; decreased the necrotic cell percentage by Aβ1-42 (human neuron-like cells): 68.38%; frequencies of sister chromatid exchanges (SCEs) ([5]; versus control group, P > 0.05): not significant differences

From patent EP3495372B1 (priority 2017, dated 2019)
